Measurements taken from paper doi:10.1101/2022.10.08.511406v1 (biorxiv, 2022).

Biological target: T1, YTH domain of YTHDF1 (Homo sapiens, UniProt Q9BYJ9)
T1 sequence (Q9BYJ9 361-559): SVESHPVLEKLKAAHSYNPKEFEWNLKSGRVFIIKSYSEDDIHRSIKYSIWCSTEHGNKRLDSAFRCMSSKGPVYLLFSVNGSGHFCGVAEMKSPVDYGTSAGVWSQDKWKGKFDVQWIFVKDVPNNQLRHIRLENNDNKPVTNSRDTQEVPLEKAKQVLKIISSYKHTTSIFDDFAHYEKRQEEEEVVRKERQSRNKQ
Assay: SPR competition
Format: binding

IC50: 13.8 µM
Structure (SMILES): CCCCCNC(=N)N/N=C/c1c[nH]c2ccc(OC)cc12 [tegaserod]
